Data on 1 compound can be found in patent US20250090689A1, “[…] FOR TREATING EPILEPSY AND NEUROPATHIC PAIN” (Trames Bio, Inc., priority 2022, published 2025).

In this experiment the target is T1, CODA71 receptor (Homo sapiens, UniProt P36544, F159M/H163T/I152M/R155K/V154L/W156N/Y151P).
T1 construct: expressed in transfected cells; host or cells: mouse brain neurons transduced in vivo with AAV carrying expression cassettes #11, #13, #33, #34, #35, #36 (KA focal epilepsy model)
Briefly: kainic acid (KA) focal epilepsy mouse model, seizure frequency after repeated dosing of TC-5619. The format is in vivo. The source says:
Six expression cassettes—#11, #13, #33, #34, #35, and #36 in Table 2—were each packaged into the AAV vector and tested in a kainic acid (KA) focal epilepsy mouse model. The animals were then monitored for seizure frequency following repeated dosing of TC-5619, an activator of the CODA71 receptor transgene encoded by these expression cassettes.

T1 sequence (P36544 with tags, fused parts or gaps Y151P/I152M/V154L/R155K/W156N/F159M/H163T): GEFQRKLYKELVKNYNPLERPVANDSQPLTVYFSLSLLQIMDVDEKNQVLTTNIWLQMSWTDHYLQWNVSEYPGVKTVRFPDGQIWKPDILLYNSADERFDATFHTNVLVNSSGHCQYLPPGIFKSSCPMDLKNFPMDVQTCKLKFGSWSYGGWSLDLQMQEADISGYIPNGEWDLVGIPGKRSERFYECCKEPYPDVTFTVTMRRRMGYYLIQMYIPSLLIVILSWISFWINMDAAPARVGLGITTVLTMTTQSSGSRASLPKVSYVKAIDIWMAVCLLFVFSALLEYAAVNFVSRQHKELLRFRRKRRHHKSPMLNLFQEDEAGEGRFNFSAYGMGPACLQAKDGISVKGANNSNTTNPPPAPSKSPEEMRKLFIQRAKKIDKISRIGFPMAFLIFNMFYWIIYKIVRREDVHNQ

Turning to `O=C(N[C@@H]1C2CCN(CC2)[C@H]1Cc1cccnc1)c1cc2ccccc2o1` [TC-5619], the seizure burden result (higher dose ranges of TC-5619, KA mice with AAV-delivered CODA71 cassettes) is listed as “significantly reduced seizure burden”. Moreover, under “repeated dosing of TC-5619 in KA mice injected with AAV carrying cassettes #11, #13, #33, #34, #35 or #36, FIG. 7”, the seizure frequency entry is “dose-dependent reduction of seizure frequency”. For the same compound, the “residual effect after washout (return to baseline)” value (repeated single doses of TC-5619 followed by washout) was “no residual effect”.
